From patent publication US9833506B2, “Vaccine—screening method” (priority 2011, dated 2017)
Read-outs that look alike come from different tables or passages of the source.

What was measured:
Format in all cases: cell-based, human
[1] = tested on: T cells in PBMC of H3N2 (A/Wisconsin/67/05) challenge study subjects; conditions: for SFC/million PBMC (range): IFN-γ ELISPOT, peptide 2 μg/ml, 300,000 PBMC/well, background subtracted; for SFC/million PBMC (range) / CD4 or CD8 dependency: baseline samples; for CD4 or CD8 dependency: second ELISPOT after CD8 depletion, 4 = CD4, 8 = CD8; for Number positive (%): percent of subjects responding to the peptide at baseline; for Number positive: subjects responding to the peptide at baseline, of 8 subjects with peptides identified
[2] = tested on: T cells in PBMC of H1N1 (A/Brisbane/59/07) challenge study subjects; conditions: for SFC/million PBMC (range): IFN-γ ELISPOT, peptide 2 μg/ml, 300,000 PBMC/well, background subtracted; for Positive no(%): percent of subjects responding to the peptide at baseline; for Positive no: subjects responding to the peptide at baseline, of 7 subjects
[3] = tested on: CD4+ T cell lines killing peptide pulsed autologous EBV-transformed B cell lines; assay: Chromium release assay, perforin-dependent cytotoxicity of CD4+ T cell lines; conditions: CD4+ T cells incubated 2 h with 100 nM concanamycin; 51Cr release; FIG. 7b
[4] = baseline samples, second ELISPOT after CD8 depletion, 4 = CD4, 8 = CD8

Row | Molecule | SFC/million PBMC (range) [1] | CD4 or CD8 dependency [1] | Number positive (%) [1] | Number positive [1] | other results
1 | HRSHRQMVATTNPLIKH [Peptide M23] | 158 SFC/million PBMC | 4 | 13% | 1 | –
2 | VKLYRKLKREITFHGAKE (Influenza A virus) [Peptide M13, synthetic peptide of H1N1 influenza A M protein, amino acid position 97-114] | – | – | – | – | CD4 or CD8 dependency [2]: 4; SFC/million PBMC, days after challenge 7 [2]: 70 SFC/million PBMC; SFC/million PBMC, days after challenge 28 [2]: 10 SFC/million PBMC; SFC/million PBMC, days after challenge −2 [2]: 30 SFC/million PBMC; SFC/million PBMC (range) ([2]; baseline samples): 41 (30-52) SFC/million PBMC; CD4 or CD8 dependency [2, 4]: 4; Positive no(%) [2]: 28%; CD4 or CD8 dependency ([2]; subject B017(2C)): 4; SFC/million PBMC, days after challenge 7 ([2]; subject B017(2C), day 7): 316 SFC/million PBMC; SFC/million PBMC, days after challenge 28 ([2]; subject B017(2C), day 28): 33 SFC/million PBMC; SFC/million PBMC, days after challenge −2 ([2]; subject B017(2C), day −2): 52 SFC/million PBMC; Positive no [2]: 2
3 | GENGRKTRIAYERMCNIL [NP27] | – | – | – | – | CD4 or CD8 dependency [2]: 8; SFC/million PBMC, days after challenge 7 [2]: 157 SFC/million PBMC; SFC/million PBMC, days after challenge 28 [2]: 10 SFC/million PBMC; SFC/million PBMC, days after challenge −2 [2]: 30 SFC/million PBMC; SFC/million PBMC (range) ([2]; baseline samples): 30 SFC/million PBMC; CD4 or CD8 dependency [2, 4]: 8; Positive no(%) [2]: 14%; Positive no [2]: 1
4 | KLSDHEGRLIQNSLTIEK [NP08] | 26 SFC/million PBMC | 4 | 13% | 1 | –
5 | KFQTAAQRAMVDQVRESR (Influenza A virus) [NP32, synthetic peptide of H3N2 influenza A NP protein, amino acid position 229-246] | 104 SFC/million PBMC | 8 | 13% | 1 | –
6 | RMVLSAFDERRNKYLEEH (Influenza A virus) [NP09, synthetic peptide of H1N1 influenza A NP protein, amino acid position 65-82] | – | – | – | – | CD4 or CD8 dependency [2]: 4; SFC/million PBMC, days after challenge 7 [2]: 187 SFC/million PBMC; SFC/million PBMC, days after challenge 28 [2]: 113 SFC/million PBMC; SFC/million PBMC, days after challenge −2 [2]: 38 SFC/million PBMC; SFC/million PBMC (range) ([2]; baseline samples): 38 SFC/million PBMC; CD4 or CD8 dependency [2, 4]: 4; Positive no(%) [2]: 14%; Positive no [2]: 1
7 | EIRASVGKMIDGIGRFYI [NP05] | 141.5 (35-248) SFC/million PBMC | 4 | 26% | 2 | –
8 | TFSVQRSLPFEKSTIMAA [NP58] | 10 SFC/million PBMC | 4 | 13% | 1 | –
9 | IKHENRMVLASTTAKAM (Influenza A virus) [Peptide M25, synthetic peptide of H3N2 influenza A M protein, amino acid position 173-189] | 118 SFC/million PBMC | 4 | 13% | 1 | –
10 | SNLNDATYQRTRALVR (Influenza A virus) [NP20, synthetic peptide of H3N2 influenza A NP protein, amino acid position 141-156] | 391 SFC/million PBMC | 8 | 13% | 1 | –
11 | C/C=C/[C@H]1O[C@@](O)([C@@H](C)[C@H](O)[C@H](C)[C@H]2OC(=O)/C(OC)=C/C(C)=C/[C@@H](C)[C@@H](O)[C@@H](CC)[C@@H](O)[C@H](C)C/C(C)=C/C=C/[C@@H]2OC)C[C@@H](O)[C@@H]1C [concanamycin] | – | – | – | – | Sensitivity of CD4 T cell killing of autologous target cells to concanamycin [3]: sensitive
12 | LKREITFHKAKEIALSY [Peptide M15] | 67 (35-96) SFC/million PBMC | 4 | 38% | 3 | –
13 | PIYRRVDGKWMRELVLY [NP14] | 113 (45-181) SFC/million PBMC | 4 | 26% | 2 | –
14 | QPTFSVQRNLPFDKTTIM [NP52] | – | – | – | – | SFC/million PBMC (range) ([2]; baseline samples): 26 SFC/million PBMC; CD4 or CD8 dependency [2, 4]: 4; Positive no(%) [2]: 14%; CD4 or CD8 dependency ([2]; subject B017(2C)): 4; SFC/million PBMC, days after challenge 7 ([2]; subject B017(2C), day 7): 76 SFC/million PBMC; SFC/million PBMC, days after challenge 28 ([2]; subject B017(2C), day 28): 10 SFC/million PBMC; SFC/million PBMC, days after challenge −2 ([2]; subject B017(2C), day −2): 26 SFC/million PBMC; Positive no [2]: 1
15 | IAYERMCNILKGKFQTAA (Influenza A virus) [NP28, synthetic peptide of H1N1 influenza A NP protein, amino acid position 217-234] | – | – | – | – | CD4 or CD8 dependency [2]: 8; SFC/million PBMC, days after challenge 7 [2]: 67 SFC/million PBMC; SFC/million PBMC, days after challenge 28 [2]: 10 SFC/million PBMC; SFC/million PBMC, days after challenge −2 [2]: 40 SFC/million PBMC; SFC/million PBMC (range) ([2]; baseline samples): 40 SFC/million PBMC; CD4 or CD8 dependency [2, 4]: 8; Positive no(%) [2]: 14%; Positive no [2]: 1
16 | TYQRTRAVLRTGMDPRM (TYQRTRALVRTGMDPRM; Influenza A virus) [NP21, synthetic peptide of H3N2 influenza A NP protein, amino acid position 147-163] | 331 SFC/million PBMC | 8 | 13% | 1 | –
17 | GQTSVQPTFSVQRNLPF [NP57] | 10 SFC/million PBMC | 4 | 13% | 1 | –
18 | GKWMRELVLYDKEEIRRI [NP15] | 93 (45-141) SFC/million PBMC | 4 | 26% | 2 | –
